From patent US20220402916A1, “SMALL MOLECULE INHIBITORS OF KRAS G12C MUTANT” (Merck Sharp & Dohme Corp., priority 2019, published 2022)

Target: T1, Biotinylated KRAS G12C protein (Homo sapiens, UniProt P01116, C118S/C51S/C80L/G12C)
T1 construct: 183 amino acids; biotin on K10
Assay: SOS-catalyzed nucleotide exchange assay
Type: biochemical
Details: for IC50: apparent potency, preincubation time of 60 minutes prior to addition of SOS; for inhibition at 10 µM: 10,000 nM, 60 minutes of preincubation prior to addition of SOS
Experimental: Compounds are added to this complex, and then after 60 minute incubation time the mixture is treated with recombinant SOS protein and unlabeled GTP. Small molecule inhibitors stabilize the Bodipy-GDP complex whereas the untreated protein rapidly exchanges Bodipy-GDP for unlabeled GTP resulting in reduced TR-FRET signal. […] This mixture is then further diluted to 90 nM in an assay buffer (20 mM HEPES, 150 mM sodium chloride, 10 mM magnesium chloride, and 0.005% Tween) containing 15 nM of Terbium-Streptavidin (Invitrogen, catalog #PV3577) and 900 nM of Bodipy-GDP and incubated at room temperature for six hours. […] Each test compound (10 mM stock in DMSO) is diluted in DMSO to make a 10-point, 3-fold dilution series in a 384-well low dead volume microplate (Labcyte, catalog #LP-0200). Once titrations are made, 10 nL of the diluted compounds is acoustically dispensed into a 384-well assay plate (Corning, catalog #3820) using an Echo 550 (Labcyte). […] Each well then receives 3 μL of 240 nM recombinant human SOS protein and 9 mM GTP (Sigma, G8877) in assay buffer and is incubated at room temperature for 60 minutes. The time-resolved fluorescence resonance energy transfer signal for the assay plate is measured on an Envision (PerkinElmer) plate reader: Excitation filter=340 nm; emission1=495 nm; emission2=520 nm; dichroic mirror=D400/D505; delay time=100 μs. The signal of each well is determined as the ratio of the emission at 520 nm to that at 495 nm. […] The apparent effect as a function of compound concentration is fit to a four parameter logistic equation.

T1 sequence (P01116 with tags, fused parts or gaps isoform P01116-2 G12C/C51S/C80L/C118S): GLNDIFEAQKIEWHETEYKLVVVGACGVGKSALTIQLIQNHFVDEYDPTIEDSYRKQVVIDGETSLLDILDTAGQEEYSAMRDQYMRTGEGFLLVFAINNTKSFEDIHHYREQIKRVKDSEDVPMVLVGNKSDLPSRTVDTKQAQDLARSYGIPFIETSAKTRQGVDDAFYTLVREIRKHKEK

Row | SMILES | IC50 [nM] | inhibition at 10 µM [%]
1 | C=CC(=O)N1CCN(c2cc(C(=O)NC3CCCC(N(C)C)C3)nc3c2CCN(c2cccc4cccc(C)c24)C3)CC1 (racemic) [Compound 40, rac-(cis,trans)-4-(4-acryloylpiperazin-1-yl)-N-(3-(dimethylamino)cyclohexyl)-7-(8-methylnaphthalen-1-yl)-5,6,7,8-tetrahydro-1,7-naphthyridine-2-carboxamide] | 3540 | –
2 | C=CC(=O)N1CCN(c2cc(C(=O)N3CCCC3CN3CCCCC3)nc3c2CCN(c2cccc4cccc(C)c24)C3)CC1 (racemic) [Compound 44, rac-1-(4-(7-(8-methylnaphthalen-1-yl)-2-(2-(piperidin-1-ylmethyl)pyrrolidine-1-carbonyl)-5,6,7,8-tetrahydro-1,7-naphthyridin-4-yl)piperazin-1-yl)prop-2-en-1-one] | 7870 | –
3 | C=CC(=O)N1CCN(c2cc(C(=O)N3CCCC3CN3CCCCCC3)nc3c2CCN(c2cccc4cccc(C)c24)C3)CC1 (racemic) [Compound 45, rac-1-(4-(2-(2-(azepan-1-ylmethyl)pyrrolidine-1-carbonyl)-7-(8-methylnaphthalen-1-yl)-5,6,7,8-tetrahydro-1,7-naphthyridin-4-yl)piperazin-1-yl)prop-2-en-1-one] | 5350 | –
4 | C=CC(=O)N1CCN(c2cc(C(=O)N3CCCCC3CN3CCCC3)nc3c2CCN(c2cccc4cccc(C)c24)C3)CC1 (racemic) [Compound 46, rac-1-(4-(7-(8-methylnaphthalen-1-yl)-2-(2-(pyrrolidin-1-ylmethyl)piperidine-1-carbonyl)-5,6,7,8-tetrahydro-1,7-naphthyridin-4-yl)piperazin-1-yl)prop-2-en-1-one] | 8880 | –
5 | C=CC(=O)N1CCN(c2cc(C(=O)N3CCCCC3CN(C)C)nc3c2CCN(c2cccc4cccc(C)c24)C3)CC1 (racemic) [Compound 47, rac-1-(4-(2-(2-((dimethylamino)methyl)piperidine-1-carbonyl)-7-(8-methylnaphthalen-1-yl)-5,6,7,8-tetrahydro-1,7-naphthyridin-4-yl)piperazin-1-yl)prop-2-en-1-one] | 7750 | –
6 | C=CC(=O)N1CCN(c2cc(C(=O)N(C)C3CCN(C)C3)nc3c2CCN(c2cccc4cccc(C)c24)C3)CC1 (racemic) [Compound 51, rac-4-(4-acryloylpiperazin-1-yl)-N-methyl-7-(8-methylnaphthalen-1-yl)-N-(1-methylpyrrolidin-3-yl)-5,6,7,8-tetrahydro-1,7-naphthyridine-2-carboxamide] | – | 36
7 | C=CC(=O)N1CCN(c2cc(C(=O)NC3CCCN(C)C3)nc3c2CCN(c2cccc4cccc(C)c24)C3)CC1 (racemic) [Compound 52, rac-4-(4-acryloylpiperazin-1-yl)-7-(8-methylnaphthalen-1-yl)-N-(1-methylpiperidin-3-yl)-5,6,7,8-tetrahydro-1,7-naphthyridine-2-carboxamide] | 5500 | –
8 | C=CC(=O)N1CCN(c2cc(C(=O)NC3CCCCN(C)C3)nc3c2CCN(c2cccc4cccc(C)c24)C3)CC1 (racemic) [Compound 53, rac-4-(4-acryloylpiperazin-1-yl)-N-(1-methylazepan-3-yl)-7-(8-methylnaphthalen-1-yl)-5,6,7,8-tetrahydro-1,7-naphthyridine-2-carboxamide] | 5360 | –
9 | C=CC(=O)N1CCN(c2cc(C(=O)NCC3CN(C)CCO3)nc3c2CCN(c2cccc4cccc(C)c24)C3)CC1 (racemic) [Compound 55, rac-4-(4-acryloylpiperazin-1-yl)-N-((4-methylmorpholin-2-yl)methyl)-7-(8-methylnaphthalen-1-yl)-5,6,7,8-tetrahydro-1,7-naphthyridine-2-carboxamide] | – | 31
10 | C=CC(=O)N1CCN(c2cc(C(=O)NCC3CCCN(C)C3)nc3c2CCN(c2cccc4cccc(C)c24)C3)CC1 (racemic) [Compound 56, rac-4-(4-acryloylpiperazin-1-yl)-7-(8-methylnaphthalen-1-yl)-N-((1-methylpiperidin-3-yl)methyl)-5,6,7,8-tetrahydro-1,7-naphthyridine-2-carboxamide] | 3650 | –
11 | C=CC(=O)N1CCN(c2cc(C(=O)NCCC3CCCN3C)nc3c2CCN(c2cccc4cccc(C)c24)C3)CC1 (racemic) [Compound 57, rac-4-(4-acryloylpiperazin-1-yl)-7-(8-methylnaphthalen-1-yl)-N-(2-(1-methylpyrrolidin-2-yl)ethyl)-5,6,7,8-tetrahydro-1,7-naphthyridine-2-carboxamide] | 3410 | –
12 | C=CC(=O)N1CCN(c2cc(C(=O)NCC3CCN(C)C3)nc3c2CCN(c2cccc4cccc(C)c24)C3)CC1 (racemic) [Compound 58, rac-4-(4-acryloylpiperazin-1-yl)-7-(8-methylnaphthalen-1-yl)-N-((1-methylpyrrolidin-3-yl)methyl)-5,6,7,8-tetrahydro-1,7-naphthyridine-2-carboxamide] | 2480 | –
13 | C=CC(=O)N1CCN(c2cc(C(=O)NCCN3CCCC3)nc3c2CCN(c2cccc4ccccc24)C3)CC1 [Compound 1, 4-(4-acryloylpiperazin-1-yl)-7-(naphthalen-1-yl)-N-(2-(pyrrolidin-1-yl)ethyl)-5,6,7,8-tetrahydro-1,7-naphthyridine-2-carboxamide] | 3920 | –
14 | C=CC(=O)N1CCN(c2cc(C(=O)NCCN(C)C)nc3c2CCN(c2cccc4ccccc24)C3)CC1 [Compound 2, 4-(4-acryloylpiperazin-1-yl)-N-(2-(dimethylamino)ethyl)-7-(naphthalen-1-yl)-5,6,7,8-tetrahydro-1,7-naphthyridine-2-carboxamide] | 3150 | –
15 | C=CC(=O)N1CCN(c2cc(C(=O)NCCCN(C)C)nc3c2CCN(c2cccc4ccccc24)C3)CC1 [Compound 4, 4-(4-acryloylpiperazin-1-yl)-N-(3-(dimethylamino)propyl)-7-(naphthalen-1-yl)-5,6,7,8-tetrahydro-1,7-naphthyridine-2-carboxamide] | 9400 | 23
16 | C=CC(=O)N1CCN(c2cc(C(=O)NCCN3CCOCC3)nc3c2CCN(c2cccc4ccccc24)C3)CC1 [Compound 9, 4-(4-acryloylpiperazin-1-yl)-N-(2-morpholinoethyl)-7-(naphthalen-1-yl)-5,6,7,8-tetrahydro-1,7-naphthyridine-2-carboxamide] | – | 33
17 | C=CC(=O)N1CCN(c2cc(C(=O)NCCN(C)C)nc3c2CCN(c2cccc4cccc(C)c24)C3)CC1 [Compound 13, 4-(4-acryloylpiperazin-1-yl)-N-(2-(dimethylamino)ethyl)-7-(8-methylnaphthalen-1-yl)-5,6,7,8-tetrahydro-1,7-naphthyridine-2-carboxamide] | 826 | –
18 | C=CC(=O)N1CCN(c2cc(C(=O)N[C@@H](C)CN(C)C)nc3c2CCN(c2cccc4cccc(C)c24)C3)CC1 [Compound 14, (S)-4-(4-acryloylpiperazin-1-yl)-N-(1-(dimethylamino)propan-2-yl)-7-(8-methylnaphthalen-1-yl)-5,6,7,8-tetrahydro-1,7-naphthyridine-2-carboxamide] | 614 | –
19 | C=CC(=O)N1CCN(c2cc(C(=O)N(C)CCN(C)C)nc3c2CCN(c2cccc4cccc(C)c24)C3)CC1 [Compound 15, 4-(4-acryloylpiperazin-1-yl)-N-(2-(dimethylamino)ethyl)-N-methyl-7-(8-methylnaphthalen-1-yl)-5,6,7,8-tetrahydro-1,7-naphthyridine-2-carboxamide] | – | 33
20 | C=CC(=O)N1CCN(c2cc(C(=O)NC(C)(C)CN(C)C)nc3c2CCN(c2cccc4cccc(C)c24)C3)CC1 [Compound 17, 4-(4-acryloylpiperazin-1-yl)-N-(1-(dimethylamino)-2-methylpropan-2-yl)-7-(8-methylnaphthalen-1-yl)-5,6,7,8-tetrahydro-1,7-naphthyridine-2-carboxamide] | – | 16
21 | C=CC(=O)N1CCN(c2cc(C(=O)NCC(C)(C)CN(C)C)nc3c2CCN(c2cccc4cccc(C)c24)C3)CC1 [Compound 22, 4-(4-acryloylpiperazin-1-yl)-N-(3-(dimethylamino)-2,2-dimethylpropyl)-7-(8-methylnaphthalen-1-yl)-5,6,7,8-tetrahydro-1,7-naphthyridine-2-carboxamide] | – | 37
22 | C=CC(=O)N1CCN(c2cc(C(=O)N[C@H](C)CN3CCOCC3)nc3c2CCN(c2cccc4cccc(C)c24)C3)CC1 [Compound 24, (R)-4-(4-acryloylpiperazin-1-yl)-7-(8-methylnaphthalen-1-yl)-N-(1-morpholinopropan-2-yl)-5,6,7,8-tetrahydro-1,7-naphthyridine-2-carboxamide] | 1490 | –
23 | C=CC(=O)N1CCN(c2cc(C(=O)NC3(CN(CC)CC)CC3)nc3c2CCN(c2cccc4cccc(C)c24)C3)CC1 [Compound 26, 4-(4-acryloylpiperazin-1-yl)-N-(1-((diethylamino)methyl)cyclopropyl)-7-(8-methylnaphthalen-1-yl)-5,6,7,8-tetrahydro-1,7-naphthyridine-2-carboxamide] | 187 | –
